Test results reported in patent US20100004284A1, “Novel Heterocyclic Compounds as Positive Allosteric Modulators of Metabotropic Glutamate Receptors” (ADDEX PHARMA SA, priority 2005, published 2010).

Columns and labels:
[1] = biological target: T1, rat mGluR5 (Rattus norvegicus, UniProt P31424); assay: mGluR5 assay on HEK-expressing rat mGluR5 (fluorescent cell based Ca2+ mobilization assay); details: for activation of rat mGluR5 receptors without co-addition of glutamate or mGluR5 agonist: HEK-rat mGluR5 cell line; for EC50: HEK-293 cells stably expressing rat mGluR5, no co-addition of glutamate, mean of at least three independent experiments in duplicate, read-out: Ca++ Flux (mean EC50)
T1 construct: expressed in transfected cells
T1 sequence (P31424 21-1171 isoform P31424-2 limits assumed): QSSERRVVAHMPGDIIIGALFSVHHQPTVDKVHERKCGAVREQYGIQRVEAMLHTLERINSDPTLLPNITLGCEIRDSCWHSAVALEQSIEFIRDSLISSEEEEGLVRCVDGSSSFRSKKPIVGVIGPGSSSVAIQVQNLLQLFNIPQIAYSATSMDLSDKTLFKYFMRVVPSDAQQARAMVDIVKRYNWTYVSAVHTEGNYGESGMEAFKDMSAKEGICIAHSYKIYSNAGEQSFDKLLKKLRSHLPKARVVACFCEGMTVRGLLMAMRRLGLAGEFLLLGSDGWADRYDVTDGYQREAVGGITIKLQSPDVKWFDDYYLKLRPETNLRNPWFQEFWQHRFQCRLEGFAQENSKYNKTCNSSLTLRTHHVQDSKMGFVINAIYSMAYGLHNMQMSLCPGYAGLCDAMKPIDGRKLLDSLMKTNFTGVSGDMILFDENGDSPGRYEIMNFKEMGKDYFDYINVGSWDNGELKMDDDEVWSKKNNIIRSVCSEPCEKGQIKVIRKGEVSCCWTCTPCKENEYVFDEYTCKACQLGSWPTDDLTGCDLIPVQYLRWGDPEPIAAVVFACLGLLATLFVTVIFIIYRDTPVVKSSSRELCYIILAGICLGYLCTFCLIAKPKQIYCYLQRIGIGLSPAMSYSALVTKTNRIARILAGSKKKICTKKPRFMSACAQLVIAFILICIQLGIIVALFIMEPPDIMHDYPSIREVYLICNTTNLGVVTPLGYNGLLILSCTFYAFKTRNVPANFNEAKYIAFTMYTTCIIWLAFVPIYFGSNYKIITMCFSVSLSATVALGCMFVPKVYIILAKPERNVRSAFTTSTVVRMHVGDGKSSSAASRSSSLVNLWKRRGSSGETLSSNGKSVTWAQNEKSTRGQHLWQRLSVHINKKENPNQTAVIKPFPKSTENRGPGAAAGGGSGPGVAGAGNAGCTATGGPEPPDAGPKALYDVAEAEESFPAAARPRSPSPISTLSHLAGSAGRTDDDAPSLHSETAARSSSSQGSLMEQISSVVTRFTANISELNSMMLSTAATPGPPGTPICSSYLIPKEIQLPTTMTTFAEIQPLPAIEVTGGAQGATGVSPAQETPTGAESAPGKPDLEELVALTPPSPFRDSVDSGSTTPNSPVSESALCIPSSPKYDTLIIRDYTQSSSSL
Description: Positive functional expression of HEK-293 cells stably expressing rat mGluR5 receptor was determined by measuring intracellular Ca^2+ changes using a Fluorometric Imaging Plate Reader (FLIPR, Molecular Devices, Sunnyvale, Calif.) in response to glutamate or selective known mGluR5 agonists and antagonists. Rat mGluR5RT-PCR products in HEK-293 cells were sequenced and found 100% identical to rat mGluR5Genbank reference sequence (NM_017012). HEK-293 cells expressing rmGluR5 were maintained in media containing DMEM, dialyzed Fetal Bovine Serum (10%), Glutamax™ (2 mM), Penicillin (100 units/ml), Streptomycin (100 μg/ml), Geneticin (100 μg/ml) and Hygromycin-B (40 μg/ml) at 37° C./5% CO2.
After one day of incubation, cells were washed with assay buffer containing: 142 mM NaCl, 6 mM KCl, 1 mM […], 1 mM CaCl2, 20 mM HEPES, 1 g/L glucose, 0.125 mM sulfinpyrazone, pH 7.4. After 60 min of loading with 4 uM Fluo-4 (TefLabs, Austin, Tex.), the cells were washed three times with 50 μl of PBS Buffer and resuspended in 45 μl of assay Buffer. The plates were then transferred to a Fluorometric Imaging Plate Reader (FLIPR, Molecular Devices, Sunnyvale, Calif.) for the assessment of intracellular calcium flux. After monitoring the baseline fluorescence for 10 seconds, increasing concentrations of representative compound (from 0.01 to 60 μM) of the present invention diluted in Assay Buffer (15 μl of 4× dilutions) was added to the cell. The final DMSO concentration in the assay was 0.3%. In each experiment, fluorescence was then monitored as a function of time for 3 minutes and the data analyzed using Microsoft Excel and GraphPad Prism. Each data point was also measured two times.
Under these experimental conditions, this HEK-rat mGluR5 cell line is able to directly detect positive allosteric modulators without the need of co-addition of glutamate or mGluR5 agonist.
The concentration-response curves of representative compounds of the present invention were generated using the Prism GraphPad software (Graph Pad Inc, San Diego, USA). The curves were fitted to a four-parameter logistic equation:
(Y=Bottom+(Top−Bottom)/(1+10̂((Log EC50−X)*Hill Slope)
allowing determination of EC50 values.
The Table 5 below represents the mean EC50 obtained from at least three independent experiments of selected molecules performed in duplicate.

[2] = biological target: T2, mGluR5 (Rattus norvegicus, UniProt P31424); details: cited from earlier work
T2 construct: positive allosteric modulators of mGluR5 receptors in native preparations; endogenous in cells; host or cells: primary cortical astrocytes from Sprague-Dawley rat embryos (E16-19)
T2 sequence (P31424 21-1203): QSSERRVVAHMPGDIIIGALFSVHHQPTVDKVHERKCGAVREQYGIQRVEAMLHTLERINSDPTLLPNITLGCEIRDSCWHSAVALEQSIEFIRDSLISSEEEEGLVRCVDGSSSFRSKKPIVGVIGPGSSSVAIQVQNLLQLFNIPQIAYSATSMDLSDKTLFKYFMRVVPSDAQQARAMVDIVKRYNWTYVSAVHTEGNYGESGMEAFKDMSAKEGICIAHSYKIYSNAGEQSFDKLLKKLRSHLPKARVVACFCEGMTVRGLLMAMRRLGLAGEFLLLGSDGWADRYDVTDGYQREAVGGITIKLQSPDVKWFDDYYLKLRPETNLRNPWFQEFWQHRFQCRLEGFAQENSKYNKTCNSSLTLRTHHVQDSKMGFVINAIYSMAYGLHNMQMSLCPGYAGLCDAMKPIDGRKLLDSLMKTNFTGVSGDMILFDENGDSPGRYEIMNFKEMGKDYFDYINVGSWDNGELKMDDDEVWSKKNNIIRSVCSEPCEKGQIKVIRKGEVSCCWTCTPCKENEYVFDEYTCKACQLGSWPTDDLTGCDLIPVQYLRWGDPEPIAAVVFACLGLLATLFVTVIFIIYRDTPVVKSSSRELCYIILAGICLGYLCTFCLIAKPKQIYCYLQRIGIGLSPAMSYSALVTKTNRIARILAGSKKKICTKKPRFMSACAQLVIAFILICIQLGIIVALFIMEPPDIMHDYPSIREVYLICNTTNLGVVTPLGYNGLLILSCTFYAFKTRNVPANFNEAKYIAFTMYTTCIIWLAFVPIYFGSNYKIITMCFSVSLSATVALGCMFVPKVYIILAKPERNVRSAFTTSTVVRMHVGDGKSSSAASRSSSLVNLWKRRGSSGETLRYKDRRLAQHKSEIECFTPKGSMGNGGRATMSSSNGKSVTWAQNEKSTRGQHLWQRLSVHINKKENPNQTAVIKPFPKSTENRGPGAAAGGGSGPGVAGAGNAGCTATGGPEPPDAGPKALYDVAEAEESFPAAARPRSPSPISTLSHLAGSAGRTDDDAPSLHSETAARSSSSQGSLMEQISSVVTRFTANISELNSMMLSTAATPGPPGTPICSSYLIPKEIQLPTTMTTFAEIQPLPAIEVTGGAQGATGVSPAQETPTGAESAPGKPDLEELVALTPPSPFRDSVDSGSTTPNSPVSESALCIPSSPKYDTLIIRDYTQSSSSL

| SMILES | EC50 [1] | also measured |
| --- | --- | --- |
| N#Cc1cccc(C(=O)Nc2cc(-c3ccccc3)nn2-c2ccccc2)c1 [CDPPB, reference compound] |  | activation of rat mGluR5 receptors without co-addition of glutamate or mGluR5 agonist [1]: activating; activity in rat cortical astrocytes culture in the absence of added glutamate [2]: inactive |
| O=C(Nc1ccc(Cl)cc1CN1C(=O)c2ccccc2C1=O)c1ccccc1O [CPPHA, reference compound] |  | activation of rat mGluR5 receptors without co-addition of glutamate or mGluR5 agonist [1]: activating; activity in rat cortical astrocytes culture in the absence of added glutamate [2]: inactive |
| Fc1cccc(/C=N/N=C/c2cccc(F)c2)c1 [DFB, reference compound] |  | activation of rat mGluR5 receptors without co-addition of glutamate or mGluR5 agonist [1]: activating; activity in rat cortical astrocytes culture in the absence of added glutamate [2]: inactive |
| O=C(c1ccc(F)c(F)c1)N1CCC[C@H](c2nc(Cc3ccc(F)cc3)no2)C1 [Example 2, (3,4-Difluoro-phenyl)-{(S)-3-[3-(4-fluoro-benzyl)-[1,2,4]oxadiazol-5-yl]-piperidin-1-yl}-methanone] | < 1000 nM |  |
| O=C(c1ccc(F)c(F)c1)N1CCC[C@H](c2noc(Cc3ccc(F)cc3)n2)C1 [Example 3, (3,4-Difluoro-phenyl)-{(S)-3-[5-(4-fluoro-benzyl)-[1,2,4]oxadiazol-3-yl]-piperidin-1-yl}-methanone] | < 1000 nM |  |
| O=C(c1ccc(F)cc1)N1CCC[C@H](c2noc(Cc3ccc(F)cc3)n2)C1 [Example 4, {(S)-3-[5-(4-Fluoro-benzyl)-[1,2,4]oxadiazol-3-yl]-piperidin-1-yl}-(4-fluoro-phenyl)-methanone] | < 1000 nM |  |
| C[C@@H](c1ccccc1)c1nc([C@H]2CCCN(C(=O)c3ccc(F)cc3)C2)no1 [Example 5, (4-Fluoro-phenyl)-{(S)-3-[5-((S)-1-phenyl-ethyl)-[1,2,4]oxadiazol-3-yl]-piperidin-1-yl}-methanone] | 1000 to 10000 nM |  |
| C[C@H](c1ccccc1)c1nc([C@H]2CCCN(C(=O)c3ccc(F)cc3)C2)no1 [Example 6, (4-Fluoro-phenyl)-{(S)-3-[5-((R)-1-phenyl-ethyl)-[1,2,4]oxadiazol-3-yl]-piperidin-1-yl}-methanone] | > 10000 nM |  |
| O=C(c1ccc(F)cc1)N1CCC[C@H](c2noc(Cc3ccccc3)n2)C1 [Example 7, [(S)-3-(5-Benzyl-[1,2,4]oxadiazol-3-yl)-piperidin-1-yl]-(4-fluoro-phenyl)-methanone] | < 1000 nM | melting point: 75 °C |
| O=C(c1ccc(F)cc1)N1CCC[C@H](c2noc([C@@H](O)c3ccccc3)n2)C1 [Example 8, (4-Fluoro-phenyl)-{(S)-3-[5-((S)-hydroxy-phenyl-methyl)-[1,2,4]oxadiazol-3-yl]-piperidin-1-yl}-methanone] | > 10000 nM | melting point: 168 to 172 °C |
| O=C(c1ccc(F)cc1)N1CCC[C@H](c2noc([C@H](O)c3ccccc3)n2)C1 [Example 9, (4-Fluoro-phenyl)-{(S)-3-[5-((R)-hydroxy-phenyl-methyl)-[1,2,4]oxadiazol-3-yl]-piperidin-1-yl}-methanone] | 1000 to 10000 nM |  |
| O=C(c1ccc(F)cc1)N1CCC[C@H](c2noc(CCc3ccccc3)n2)C1 [Example 10, (4-Fluoro-phenyl)-[(S)-3-(5-phenethyl-[1,2,4]oxadiazol-3-yl)-piperidin-1-yl]-methanone] | 1000 to 10000 nM |  |
| O=C(c1ccccc1)c1nc([C@H]2CCCN(C(=O)c3ccc(F)cc3)C2)no1 [Example 11, {3-[(S)-1-(4-Fluoro-benzoyl)-piperidin-3-yl]-[1,2,4]oxadiazol-5-yl}-phenyl-methanone] | 1000 to 10000 nM | melting point: 80 to 83 °C |
| O=C(c1ccc(F)cc1)N1CCC[C@H](c2noc(Nc3ccccc3)n2)C1 [Example 12, (4-Fluoro-phenyl)-[(S)-3-(5-phenylamino-[1,2,4]oxadiazol-3-yl)-piperidin-1-yl]-methanone] | 1000 to 10000 nM |  |
| O=C(c1ccc(F)cc1)N1CCC[C@H](c2noc(NCc3ccc(F)cc3)n2)C1 [Example 13, {(S)-3-[5-(4-Fluoro-benzylamino)-[1,2,4]oxadiazol-3-yl]-piperidin-1-yl}-(4-fluoro-phenyl)-methanone] | 1000 to 10000 nM |  |
| O=C(c1ccc(F)cc1)N1CCC[C@H](n2nnc(Cc3ccccc3)n2)C1 [Example 14, [(S)-3-(5-Benzyl-tetrazol-2-yl)-piperidin-1-yl]-(4-fluoro-phenyl)-methanone] | < 1000 nM |  |
| O=C(c1ccc(F)cc1)N1CCCC(c2nc(Oc3ccc(F)cc3)no2)C1 (centres unmarked) [Example 15, {3-[3-(4-Fluoro-phenoxy)-[1,2,4]oxadiazol-5-yl]-piperidin-1-yl}-(4-fluoro-phenyl)-methanone] | 1000 to 10000 nM |  |
| O=C(c1ccc(F)cc1)N1CCCC(c2nc(Oc3ccccc3)no2)C1 (centres unmarked) [Example 16, (4-Fluoro-phenyl)-[3-(3-phenoxy-[1,2,4]oxadiazol-5-yl)-piperidin-1-yl]-methanone] | < 1000 nM | melting point: 96 to 100 °C |
| O=C(c1ccc(F)nc1)N1CCC[C@H](c2nc(Oc3ccccc3)no2)C1 [Example 17, (6-Fluoro-pyridin-3-yl)-[(S)-3-(3-phenoxy-[1,2,4]oxadiazol-5-yl)-piperidin-1-yl]-methanone] | < 1000 nM |  |
| O=C(c1ccc(F)nc1)N1CCC[C@H](c2nc(Oc3ccccc3F)no2)C1 [Example 18, {(S)-3-[3-(2-Fluoro-phenoxy)-[1,2,4]oxadiazol-5-yl]-piperidin-1-yl}-(6-fluoro-pyridin-3-yl)-methanone] | 1000 to 10000 nM |  |
| O=C(c1ccc(F)nc1)N1CCC[C@H](c2nc(Oc3cccc(F)c3)no2)C1 [Example 19, {(S)-3-[3-(3-Fluoro-phenoxy)-[1,2,4]oxadiazol-5-yl]-piperidin-1-yl}-(6-fluoro-pyridin-3-yl)-methanone] | < 1000 nM |  |
| O=C(c1ccc(F)cc1)N1CCC[C@H](c2nc(Sc3ccccc3)no2)C1 [Example 20, (4-Fluoro-phenyl)-[(S)-3-(3-phenylsulfanyl-[1,2,4]oxadiazol-5-yl)-piperidin-1-yl]-methanone] | > 10000 nM |  |
| O=C(c1ccc(F)cc1)N1CCCC(c2nc(Oc3cccc(F)c3)no2)C1 (centres unmarked) [Example 21, {3-[3-(3-Fluoro-phenoxy)-[1,2,4]oxadiazol-5-yl]-piperidin-1-yl}-(4-fluoro-phenyl)-methanone] | < 1000 nM | melting point: 99 to 102 °C |
| O=C(c1ccncc1F)N1CCC[C@H](c2nc(Oc3ccccc3)no2)C1 [Example 22, (3-Fluoro-pyridin-4-yl)-[(S)-3-(3-phenoxy-[1,2,4]oxadiazol-5-yl)-piperidin-1-yl]-methanone] | 1000 to 10000 nM |  |
